Data as given in paper PMC6961518, “Fe-HBED Analogs: A Promising Class of Iron-Chelate Contrast Agents for Magnetic Resonance Imaging” (Contrast Media & Molecular Imaging, 2019).
Like-named read-outs stand apart in the source and are kept apart here.

Assays:
[1] = Relaxivity determination (r1, r2) on Bruker minispec mq60; assay type: physicochemical; settings: PBS, 60 MHz, 40°C
Description: A stock solution having a concentration of 1 mM of the CA of interest was prepared in phosphate-buffered saline (PBS), and the iron concentration was verified by elemental analysis. Separate 0.75 mM, 0.50 mM, and 0.25 mM samples were prepared from the stock by dilution in PBS, and T1 and T2 relaxations times were recorded in triplicate for each sample on a Bruker minispec mq60 instrument (60 MHz, 40°C). The relaxivities (r1 and r2) were obtained as the gradient of 1/Tx (x = 1, 2) plotted against Fe chelate concentration following linear least squares regression analysis.

bovine serum albumin = bovine serum albumin (Bos taurus, UniProt P02769); test: Serum protein binding assay (ultrafiltration, UV-Vis); assay type: in vitro ADME; settings: bovine serum albumin 8 wt.% in PBS, 1 hour at room temperature, 30 kDa filter
Sequence of bovine serum albumin (P02769 25-607): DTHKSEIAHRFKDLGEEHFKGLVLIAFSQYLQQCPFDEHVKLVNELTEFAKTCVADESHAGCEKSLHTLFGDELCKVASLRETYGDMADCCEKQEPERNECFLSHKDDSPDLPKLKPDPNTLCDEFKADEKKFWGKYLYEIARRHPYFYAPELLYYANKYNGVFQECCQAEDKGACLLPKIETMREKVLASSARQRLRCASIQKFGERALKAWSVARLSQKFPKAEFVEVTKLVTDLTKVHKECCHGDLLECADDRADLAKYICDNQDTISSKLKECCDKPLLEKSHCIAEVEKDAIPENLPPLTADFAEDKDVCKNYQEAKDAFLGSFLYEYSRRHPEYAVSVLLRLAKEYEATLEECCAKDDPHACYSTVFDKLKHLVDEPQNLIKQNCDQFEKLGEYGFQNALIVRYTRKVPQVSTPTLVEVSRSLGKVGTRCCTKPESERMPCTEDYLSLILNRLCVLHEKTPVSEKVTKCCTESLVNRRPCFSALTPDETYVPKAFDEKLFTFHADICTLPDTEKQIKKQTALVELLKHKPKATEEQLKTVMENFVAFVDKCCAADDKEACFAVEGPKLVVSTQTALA
Description: A 5 mM stock solution of the iron chelate complex under investigation was prepared in PBS, and the UV/visible spectrum of the solution was acquired to determine the wavelength of the absorbance maximum (λmax). An aliquot of the stock solution (500 μL) was added to a PBS solution (2 mL) containing bovine serum albumin (8 wt.%). A control sample was prepared by diluting a second aliquot of the stock solution (500 μL) with PBS (2 mL). The samples were vortexed briefly and then allowed to stand for 1 hour at room temperature. At the stipulated time, the resulting solutions were transferred to Amicon Ultra filters (4 mL, MWCO = 30 kDa). The solutions were centrifuged (3000 rcf, 15 min), and the permeate was taken directly for UV-Vis measurement. The wavelength and intensity of λmax in the visible region for the solution were recorded. The relative amount of free and protein-bound agent was calculated from the λmax intensity ratio of the assay to control samples.

[2] = Ascorbic acid oxidation assay (redox stability); settings: iron chelate 20 μM (30 mol%), ascorbic acid 67 μM in PBS, 45 minutes, air oxidation
Description: The UV-Vis spectrum of an ascorbic acid solution (67 μM and 12 μg/mL) in PBS (3 mL) was recorded. The absorbance intensity at λmax = 265 nm was observed. An aliquot (30 μL) of the iron chelate of ethylenediaminetetraacetic acid (Fe-EDTA) in PBS (2 mM, 0.7 mg/mL) was added to afford a catalytic quantity of Fe-EDTA (20 μM, 30 mol%) with respect to ascorbic acid. The absorbance intensity (λmax = 265 nm) was recorded at intervals of 1 minute for a period of 45 minutes and the data normalized to the t0 absorbance. The experiment was then repeated identically using a solution of the iron chelate complex under investigation (20 μM, 30 mol%), and the results were plotted as a function of the percent initial ascorbic acid signal versus elapsed time (min).

[3] = set-up: method as in PMID 16230904; settings: in water at 1.5 T; cited from earlier work
[4] = cited from earlier work

| r1 [1] [mM⁻¹ s⁻¹] | Protein binding (bovine serum albumin) [%] | SMILES | pseudo-first-rate time constant for ascorbic acid consumption, relative to Fe-EDTA [2] [%] | r1 [3] [mM⁻¹ s⁻¹] | log K (Fe[III] binding) [4] |
| --- | --- | --- | --- | --- | --- |
| 0.49 | 33 | O=C1CN2CCN3CC(=O)[O][Fe]([O]1)([O]c1ccccc1C2)[O]c1ccccc1C3 [Fe-1] | – | – | – |
| 0.9 | – | O=C1CN2CCN3CC(=O)[O][Fe]([O]1)([O]c1ccc(S(=O)(=O)O)cc1C2)[O]c1ccc(S(=O)(=O)O)cc1C3 [Fe-2] | < 0.5 | – | – |
| 1.3 | 49 | O=P1(O)CN2CCN3Cc4ccccc4[O][Fe]([O]c4ccccc4C2)([O]1)[O]P(=O)(O)C3 [Fe-3] | < 0.5 | – | – |
| 0.9 | 20 | O=P1(O)CN2CCN3Cc4cccc(CO)c4[O][Fe]([O]c4c(CO)cccc4C2)([O]1)[O]P(=O)(O)C3 [Fe-4] | – | – | – |
| – | – | CNC[C@H](O)[C@@H](O)[C@H](O)[C@H](O)CO.CNC[C@H](O)[C@@H](O)[C@H](O)[C@H](O)CO.O=C([O-])CN(CCN(CC(=O)[O-])CC(=O)O)CCN(CC(=O)[O-])CC(=O)O.[Gd+3] [Gd-1, Gadopentetate dimeglumine] | – | 3.3 | – |
| – | – | O=C(O)CN(CCN(CC(=O)O)Cc1ccccc1O)Cc1ccccc1O [HBED, N,N′-bis(2-hydroxyphenyl)ethylenediamine-N,N′-diacetic acid] | – | – | 39.7 |
